In patent US10787448B2, “Indolizino [3,2-C] quinoline-based fluorescent probe” (SEOUL NATIONAL UNIVERSITY R & DB FOUNDATION, priority 2015, dated 2020):
Where “and” joins values, the source holds several entries; their conditions need not be identical. Equal entries are not always repeated.

Experiments:
HeLa cells = assay: Cell permeability: fluorescence imaging and live cell confocal imaging; assay type: cell-based; settings: for intracellular organelles in which fluorescence is detected: HeLa cells; for co-localization with LysoTracker: live-cell confocal imaging, IQ 56 green, IQ 57 blue wavelength; for detection with yellow and red wavelength filters: live HeLa cells, ex 514 nm, em 519 nm and ex 561 nm, em 566 nm
Description: HeLa cells were seeded in a 96-well plate and incubated for 24 hours. The cells were treated with the indolizino[3,2-c]quinoline compounds, and incubated at 37° C. under a 5% CO2 condition for 30 minutes. After removal of the medium, the cells were washed with 1×DPBS. The washed cells were fixed with 4% formaldehyde at room temperature for 10 minutes, and washed with 1×DPBS. A cell image was screened using an Operetta HTS imaging system (PerkinElmer).
After HeLa cells were seeded to account for 70 to 80% of the area of a confocal dish (SPL life science) and overnight cultured, the indolizino[3,2-c]quinoline compounds (10 μM) prepared by mixing fresh DMEM after removal of the existing DMEM medium were dispensed, and the cells were incubated for 30 minutes to 1 hour at 37° C. Afterward, if needed, LysoTracker (50 nM) was mixed with DMEM to remove the existing medium and then dispensed to the cells, and the cells were incubated for 30 minutes at 37° C. After incubation, without washing, the cells were examined by a confocal laser microscope (Leica TCS SP8 SMD, Leica, Mannheim, Germany). However, when co-stained with a LysoTracker, the cells were washed with DPBS twice before the microscopy. […]

[1] = Analysis of optical characteristics (absorption, fluorescence emission, quantum yield) in solvents; assay type: physicochemical; settings: for Fluorescence Emission Intensity / Peak emission wavelength λmax em(nm) / Relative fluorescence Emission Intensitynorm: H2O at 2 μM; for Peak emission wavelength λmax em(nm): excited at the longest absorption maxima; for Relative fluorescence Emission Intensitynorm: normalized fluorescence intensity; for Fluorescence quantum yield (Φ): Rhodamine 6G as a standard (Φ = 0.86 in water)
Description: Fluorescence emission spectra were obtained at 20° C. using a JASCO FP-6500 spectrofluorometer, a 10 mM stock solution prepared by dissolving an indolizino[3,2-c]quinoline compound in DMSO was diluted in a solvent. […] Absorption spectra were recorded at room temperature using a Perkin Elmer Lamda 20 UV/VIS spectrometer. […]
Further, the compounds (excluding Entry #51-57, etc.) of Formula 1 were subjected to spectrum analyses in various solvents, and the results are shown in Tables 6 and 7, and FIGS. 5C and 5D.

[2] = system: DNA oligomers (48 bp) tetO sequences; assay: Binding to DNA by fluorescence spectrophotometer; settings: hybridized tetO DNA oligomers added, 1 minute incubation
Description: Using a fluorescence spectrophotometer, it was confirmed whether the indolizino[3,2-c]quinoline compound of the present invention binds to DNA. First, DNA oligomers (48 bp) used in the experiment are tetO sequences, and the base sequences thereof are as follows.
The same molarities of oligomers were mixed while being heated at 95° C. for 5 minutes and cooled to room temperature for 2 hours to hybridize, the fluorescence of each of the indolizino[3,2-c]quinoline compounds of the present invention was measured, a corresponding equivalent of DNA oligomer was added to a cuvette, and then incubated while blocking light for 1 minute to measure fluorescence again.

| Compound | quantum yield (Φ) ([1]; DW, standard Rhodamine 6G) | quantum yield (Φ) ([1]; EtOH, standard Coumarin 153) | Fluorescence Emission Intensity [1] | Peak emission wavelength λmax em(nm) [1] [nm] | Relative fluorescence Emission Intensitynorm [1] | also measured |
| --- | --- | --- | --- | --- | --- | --- |
| COc1ccc(-c2nc3ccccc3c3cc4ccccn4c23)cc1CN1CCOCC1 [IQ 56, 4-(5-(indolizino[3,2-c]quinolin-6-yl)-2-methoxybenzyl)morpholine] |  |  |  |  |  | intracellular organelles in which fluorescence is detected (HeLa cells): intensively distributed in the lysosomal area; co-localization with LysoTracker (HeLa cells): co-localized with the commercially available marker LysoTracker |
| CCOC(=O)c1c2c3ccccc3nc(-c3ccc(OC)c(CN4CCOCC4)c3)c2n2ccccc12 [IQ 57, ethyl 6-(4-methoxy-3-(morpholinomethyl)phenyl)indolizino[3,2-c]quinoline-12-carboxylate] |  |  |  |  |  | intracellular organelles in which fluorescence is detected (HeLa cells): intensively distributed in the lysosomal area; co-localization with LysoTracker (HeLa cells): co-localized with the commercially available marker LysoTracker |
| COc1ccc(-c2ccn3c(c2)cc2c4ccccc4nc(-c4ccc(OC)cc4)c23)cc1 [IQ-B26, 6,10-bis(4-methoxyphenyl)indolizino[3,2-c]quinoline] |  |  |  |  |  | detection with yellow and red wavelength filters (HeLa cells): detected |
| COc1ccc(-c2nc3ccccc3c3cc4cc(-c5ccc(/C=C/C=O)cc5)ccn4c23)cc1 [IQ-B31, (E)-3-(4-(6-(4-methoxyphenyl)indolizino[3,2-c]quinolin-10-yl)phenyl)acrylaldehyde] |  |  |  |  |  | λex(nm) ([1]; Table 7): 440 nm; detection with yellow and red wavelength filters (HeLa cells): detected |
| COc1ccc(-c2nc3ccccc3c3cc4cc(-c5ccc(N(C)C)cc5)ccn4c23)cc1 [IQ-B37, 4-(6-(4-methoxyphenyl)indolizino[3,2-c]quinolin-10-yl)-N,N-dimethylaniline] |  |  |  |  |  | λex(nm) ([1]; Table 7): 432 nm; detection with yellow and red wavelength filters (HeLa cells): detected |
| COc1ccc(-c2nc3ccccc3c3cc4c(C)cccn4c23)cc1OC [compound 17] | 0.065 | 0.604 | 31.7 | 524.5 | 0.14 | Maximum absorption wavelength λmax abs(nm) [1]: 391 nm; shift of maximum emission wavelength on addition of DNA oligomer [2]: wavelength to longer wavelength |
| Cc1cccn2c1cc1c3ccccc3nc(-c3ccco3)c12 [compound 18] | 0.008 | 0.421 | 15.0 | 523.5 | 0.06 | Maximum absorption wavelength λmax abs(nm) [1]: 400 nm; shift of maximum emission wavelength on addition of DNA oligomer [2]: wavelength to shorter wavelength |
| COC(=O)c1c2c3ccccc3nc(-c3cc(OC)cc(OC)c3)c2n2ccccc12 [compound 19] | 0.060 | 0.222 | 80.5 | 478 | 0.35 | shift of maximum emission wavelength on addition of DNA oligomer [2]: wavelength to shorter wavelength |
| COc1ccc(-c2nc3ccccc3c3cc4ccc(Br)cn4c23)cc1 [compound 22] | 0.070 | 0.440 | 89.5 | 512 | 0.38 |  |
| Cc1ccc(-c2nc3ccccc3c3cc4ccc(Br)cn4c23)cc1 [compound 23] | 0.065 | 0.106 | 82.4 | 518 | 0.35 |  |
| COc1ccc(-c2nc3ccccc3c3cc4ccc(Br)cn4c23)cc1OC [compound 24] | 0.030 | 0.063 | 75.1 | 513 | 0.32 |  |
| Brc1ccc2cc3c4ccccc4nc(-c4ccco4)c3n2c1 [compound 25] | 0.009 | 0.031 | 13.4 | 505.5 | 0.06 |  |
| CCOC(=O)c1c2c3ccccc3nc(-c3ccc([N+](=O)[O-])cc3)c2n2ccccc12 [compound 26] | 0.000 | 0.000 |  |  | 0.00 | Maximum absorption wavelength λmax abs(nm) [1]: 384 nm |
| CCOC(=O)c1c2c3ccccc3nc(-c3cccc(Cl)c3)c2n2ccccc12 [compound 27] | 0.073 | 0.318 | 98.9 | 474 | 0.42 |  |
| CCOC(=O)c1c2c3ccccc3nc(-c3cccc(F)c3)c2n2ccccc12 [compound 28] |  |  | 211.7 | 476 | 0.91 | Absorption coefficient (cm^−1M^−1) [1]: 10780 cm^−1M^−1; Absorption wavelength λex(nm) [1]: 369 nm; Emission wavelength λem(nm) [1]: 476 nm; λem (nm) ([1]; DMF): 470 nm; λem (nm) ([1]; DMSO): 472.5 nm; λem (nm) ([1]; EtOH): 449.5 nm; λem (nm) ([1]; EtOH:CHCl3 = 1:5): 450 nm; λem (nm) ([1]; H2O): 476 nm; λem (nm) ([1]; MC): 451.5 nm; Fluorescence quantum yield (Φ) [1]: 0.061 |
| CCOC(=O)c1c2c3ccccc3nc(-c3cccc(OC)c3)c2n2ccccc12 [compound 29] | 0.120 | 0.365 | 186.2 | 482 | 0.80 |  |
| CCOC(=O)c1c2c3ccccc3nc(-c3ccc(OC)c(OC)c3)c2n2ccccc12 [compound 30] |  |  | 210.7 | 480.5 | 0.90 | Absorption coefficient (cm^−1M^−1) [1]: 10580 cm^−1M^−1; Absorption wavelength λex(nm) [1]: 369 nm; Emission wavelength λem(nm) [1]: 481 nm; λem (nm) ([1]; DMF): 450 nm; λem (nm) ([1]; DMSO): 452.5 nm; λem (nm) ([1]; EtOH): 444 nm; λem (nm) ([1]; EtOH:CHCl3 = 1:5): 447.5 nm; λem (nm) ([1]; H2O): 478.5 nm; λem (nm) ([1]; MC): 448 nm; Fluorescence quantum yield (Φ) [1]: 0.084 |

| Compound | quantum yield (Φ) ([1]; DW, standard Rhodamine 6G) | quantum yield (Φ) ([1]; EtOH, standard Coumarin 153) | Fluorescence Emission Intensity [1] | Peak emission wavelength λmax em(nm) [1] [nm] | Relative fluorescence Emission Intensitynorm [1] | also measured |
| --- | --- | --- | --- | --- | --- | --- |
| Cc1cccn2c1cc1c3ccccc3nc(-c3cccc4ccccc34)c12 [compound 33] | 0.082 | 0.277 |  |  |  |  |
| Cc1ccc2cc3c4ccccc4nc(-c4cccc5ccccc45)c3n2c1 [compound 35] | 0.073 | 0.365 |  |  |  |  |
| CN(C)c1ccc(-c2nc3ccccc3c3cc4ccccn4c23)cc1 [compound 36] | 0.006 | 0.386 |  |  |  | shift of maximum emission wavelength on addition of DNA oligomer [2]: wavelength to longer wavelength |
| COc1ccc(-c2nc3ccccc3c3c(C#N)c4ccccn4c23)cc1 [compound 39] | 0.026 | 0.492 |  |  |  |  |
| c1csc(-c2nc3ccccc3c3cc4ccccn4c23)c1 [compound 42] |  |  |  |  |  | shift of maximum emission wavelength on addition of DNA oligomer [2]: wavelength to shorter wavelength |
| COC(=O)c1c2c3ccccc3nc(-c3ccccn3)c2n2ccccc12 [compound 43] | 0.014 | 0.275 |  |  |  |  |
| COc1ccc(-c2nc3ccccc3c3c(-c4ccc(C(F)(F)F)cc4)c4ccccn4c23)cc1 [compound 47] | 0.050 | 0.597 |  |  |  |  |
| COc1ccc(-c2nc3ccccc3c3c(-c4ccc(C(C)=O)cc4)c4ccccn4c23)cc1 [compound 48] | 0.105 | 0.050 |  |  |  |  |
| COc1ccc(-c2nc3ccccc3c3c(Br)c4ccccn4c23)cc1 [compound 49] | 0.085 | 0.195 |  |  |  |  |
| COc1ccc(-c2nc3ccccc3c3c(I)c4ccccn4c23)cc1 [compound 50] | 0.014 | 0.037 |  |  |  |  |
| CCOC(=O)c1c2c3ccccc3nc(-c3ccc(OC)cc3)c2n2ccccc12 [compound 51] |  |  |  |  |  | λex(nm) ([1]; Table 6): 403 nm |
| Cc1cccn2c1cc1c3ccccc3nc(-c3cccs3)c12 [compound 52] |  |  |  |  |  | λex(nm) ([1]; Table 6): 399 nm |
| Cc1cccn2c1cc1c3ccccc3nc(-c3ccc(Cl)o3)c12 [compound 53] |  |  |  |  |  | λex(nm) ([1]; Table 6): 422 nm |
| C#Cc1c2c3ccccc3nc(-c3ccc(OC)cc3)c2n2ccccc12 [compound 55] |  |  |  |  |  | λex(nm) ([1]; Table 6): 413 nm |
| COc1ccc(-c2nc3ccccc3c3cc4ccccn4c23)cc1CN1CCOCC1 [compound 56] |  |  |  |  |  | λex(nm) ([1]; Table 6): 450 nm and 422 nm |
| CCOC(=O)c1c2c3ccccc3nc(-c3ccc(OC)c(CN4CCOCC4)c3)c2n2ccccc12 [compound 57] |  |  |  |  |  | λex(nm) ([1]; Table 6): 401 nm |
